pIC50: −log10 of the molar value.
Molecular target: PRC2 complex (EZH2 Y641F/EED/SUZ12/RbAp48/AEBP2) (Homo sapiens (Human), UniProt Q15910, Y641F)
Test: Activity of a compound to PRC2 complex (EZH2 Y641F), HTRF
Settings: not given

Sequence of PRC2 complex (EZH2 Y641F/EED/SUZ12/RbAp48/AEBP2) (Q15910 whole entry Y641F): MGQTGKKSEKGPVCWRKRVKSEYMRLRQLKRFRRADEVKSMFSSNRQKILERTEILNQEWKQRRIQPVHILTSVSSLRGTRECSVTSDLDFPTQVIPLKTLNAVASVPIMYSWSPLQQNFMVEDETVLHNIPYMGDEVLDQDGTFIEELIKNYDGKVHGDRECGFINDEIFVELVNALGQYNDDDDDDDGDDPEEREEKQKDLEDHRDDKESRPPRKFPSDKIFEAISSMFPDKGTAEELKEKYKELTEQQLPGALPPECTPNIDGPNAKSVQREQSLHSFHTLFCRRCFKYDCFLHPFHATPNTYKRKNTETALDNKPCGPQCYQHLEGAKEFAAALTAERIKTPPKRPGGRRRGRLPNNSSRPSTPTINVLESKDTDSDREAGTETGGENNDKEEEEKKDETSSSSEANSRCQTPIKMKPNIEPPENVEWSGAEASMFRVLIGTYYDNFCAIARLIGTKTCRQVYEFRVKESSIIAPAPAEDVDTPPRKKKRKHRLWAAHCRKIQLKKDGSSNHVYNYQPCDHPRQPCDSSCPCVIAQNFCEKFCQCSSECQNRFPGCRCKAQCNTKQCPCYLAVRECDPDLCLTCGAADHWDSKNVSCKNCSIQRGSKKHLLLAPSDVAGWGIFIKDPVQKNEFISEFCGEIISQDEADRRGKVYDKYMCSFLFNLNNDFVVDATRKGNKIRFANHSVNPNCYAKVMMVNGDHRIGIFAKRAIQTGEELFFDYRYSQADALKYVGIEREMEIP
Sequence of PRC2 complex (EZH2 Y641F/EED/SUZ12/RbAp48/AEBP2) (O75530 whole entry partner): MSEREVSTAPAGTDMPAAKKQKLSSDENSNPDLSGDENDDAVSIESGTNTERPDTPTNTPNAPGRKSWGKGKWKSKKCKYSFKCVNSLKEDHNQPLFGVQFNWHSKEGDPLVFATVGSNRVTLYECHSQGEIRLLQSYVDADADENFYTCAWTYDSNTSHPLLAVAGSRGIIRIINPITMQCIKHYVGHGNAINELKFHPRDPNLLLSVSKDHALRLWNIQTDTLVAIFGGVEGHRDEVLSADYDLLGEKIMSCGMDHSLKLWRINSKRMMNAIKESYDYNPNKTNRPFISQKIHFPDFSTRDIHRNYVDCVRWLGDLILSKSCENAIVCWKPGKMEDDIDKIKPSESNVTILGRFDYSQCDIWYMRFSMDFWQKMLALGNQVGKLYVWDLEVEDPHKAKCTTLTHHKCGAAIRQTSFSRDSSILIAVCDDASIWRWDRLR
Sequence of PRC2 complex (EZH2 Y641F/EED/SUZ12/RbAp48/AEBP2) (Q15022 whole entry partner): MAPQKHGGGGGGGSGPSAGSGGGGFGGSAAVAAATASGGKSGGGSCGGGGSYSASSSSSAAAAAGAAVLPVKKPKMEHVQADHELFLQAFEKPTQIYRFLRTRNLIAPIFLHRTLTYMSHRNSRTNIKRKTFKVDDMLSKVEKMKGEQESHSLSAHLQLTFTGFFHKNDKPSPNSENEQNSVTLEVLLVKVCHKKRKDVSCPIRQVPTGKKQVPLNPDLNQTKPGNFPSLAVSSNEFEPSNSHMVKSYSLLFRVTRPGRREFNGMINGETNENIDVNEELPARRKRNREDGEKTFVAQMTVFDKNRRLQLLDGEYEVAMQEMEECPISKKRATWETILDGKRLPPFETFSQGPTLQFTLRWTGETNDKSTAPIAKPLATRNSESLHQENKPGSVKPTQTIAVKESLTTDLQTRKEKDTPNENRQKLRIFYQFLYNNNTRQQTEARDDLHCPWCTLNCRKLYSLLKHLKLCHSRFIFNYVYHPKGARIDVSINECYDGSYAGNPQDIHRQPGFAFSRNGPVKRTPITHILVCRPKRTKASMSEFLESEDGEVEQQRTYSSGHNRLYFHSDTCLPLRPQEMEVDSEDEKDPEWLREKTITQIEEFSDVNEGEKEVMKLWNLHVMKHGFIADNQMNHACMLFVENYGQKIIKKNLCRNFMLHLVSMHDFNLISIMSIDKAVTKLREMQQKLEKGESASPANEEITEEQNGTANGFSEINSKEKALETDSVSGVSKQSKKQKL
Sequence of PRC2 complex (EZH2 Y641F/EED/SUZ12/RbAp48/AEBP2) (Q09028 whole entry partner): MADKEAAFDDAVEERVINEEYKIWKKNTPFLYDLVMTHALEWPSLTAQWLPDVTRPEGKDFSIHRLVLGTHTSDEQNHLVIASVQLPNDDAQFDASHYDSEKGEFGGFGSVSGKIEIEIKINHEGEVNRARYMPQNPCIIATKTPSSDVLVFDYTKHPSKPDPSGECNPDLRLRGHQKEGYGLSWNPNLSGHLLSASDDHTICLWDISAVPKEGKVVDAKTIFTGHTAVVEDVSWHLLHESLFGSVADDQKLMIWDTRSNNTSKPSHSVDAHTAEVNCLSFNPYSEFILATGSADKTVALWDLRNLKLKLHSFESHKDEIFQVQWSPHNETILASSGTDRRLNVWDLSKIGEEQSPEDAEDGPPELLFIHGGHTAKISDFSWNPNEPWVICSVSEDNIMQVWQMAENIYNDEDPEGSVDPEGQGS
Sequence of PRC2 complex (EZH2 Y641F/EED/SUZ12/RbAp48/AEBP2) (Q6ZN18 whole entry partner): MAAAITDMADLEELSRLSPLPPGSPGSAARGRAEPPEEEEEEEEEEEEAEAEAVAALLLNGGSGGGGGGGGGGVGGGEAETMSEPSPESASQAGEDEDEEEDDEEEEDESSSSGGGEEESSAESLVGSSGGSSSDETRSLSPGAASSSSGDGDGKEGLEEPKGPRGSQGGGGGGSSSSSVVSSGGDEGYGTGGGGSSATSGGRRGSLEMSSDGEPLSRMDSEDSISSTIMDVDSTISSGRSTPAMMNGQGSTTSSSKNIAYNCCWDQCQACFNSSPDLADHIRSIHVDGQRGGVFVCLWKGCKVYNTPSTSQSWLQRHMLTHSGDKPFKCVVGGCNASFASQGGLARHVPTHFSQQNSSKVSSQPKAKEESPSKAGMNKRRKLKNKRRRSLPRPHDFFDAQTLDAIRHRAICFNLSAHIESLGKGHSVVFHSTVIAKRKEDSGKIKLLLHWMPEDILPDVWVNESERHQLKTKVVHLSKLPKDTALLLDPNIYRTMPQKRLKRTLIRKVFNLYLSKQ

| Structure (SMILES) | pIC50 |
| --- | --- |
| Cc1cc(C)c(CNC(=O)c2cc3cc(Br)cn3c(C(C)N3CCNCC3)c2C)c(=O)[nH]1 (stereo not shown) [Example 100] | 6.00 to 7.00 |
| Cc1cc(C)c(CNC(=O)c2cc3cc(Br)cn3c(C(C)N3CCN(S(C)(=O)=O)CC3)c2C)c(=O)[nH]1 (stereo not shown) [Example 103, 2-bromo-N-((4,6-dimethyl-2-oxo-1,2-dihydropyridin-3-yl)methyl)-6-methyl-5-(1-(4-(methylsulfonyl)piperazin-1-yl)ethyl)indolizine-7-carboxamide] | 6.00 to 7.00 |
| Cc1cc(C)c(CNC(=O)c2cc3cc(-c4ccnn4C)cn3c(C(C)N3CCC(N(C)C)CC3)c2C)c(=O)[nH]1 (stereo not shown) [Example 106, N-((4,6-dimethyl-2-oxo-1,2-dihydropyridin-3-yl)methyl)-5-(1-(4-(dimethylamino)piperidine-1-yl)ethyl)-6-methyl-2-(1-methyl-1H-pyrazol-5-yl)indolizine-7-carboxamide] | > 7.00 |
| COc1cc(C)[nH]c(=O)c1CNC(=O)c1cc2cc(-c3nccn3C)cn2c(C(C)N2CCN(CC(F)(F)F)CC2)c1C (stereo not shown) [Example 109, N-((4-methoxy-6-methyl-2-oxo-1,2-dihydropyridin-3-yl)methyl)-6-methyl-2-(1-methyl-1H-imidazol-2-yl)-5-(1-(4-(2,2,2-trifluoroethyl)piperazin-1-yl)ethyl)indolizine-7-carboxamide] | 6.00 to 7.00 |
| Cc1cc(C)c(CNC(=O)c2cc3cc(-c4cc5c(s4)CCNC5)cn3c(C(C)N3CCOCC3)c2C)c(=O)[nH]1 (stereo not shown) [Example 115, N-((4,6-dimethyl-2-oxo-1,2-dihydropyridin-3-yl)methyl)-6-methyl-5-(1-morpholinoethyl)-2-(4,5,6,7-tetrahydrothieno[3,2-c]pyridin-2-yl)indolizine-7-carboxamide] | > 7.00 |
| Cc1cc(C)c(CNC(=O)c2cc3c(-c4cccc(N5CCOCC5)c4)ccn3c(C(C)N3CCOCC3)c2C)c(=O)[nH]1 (stereo not shown) [Example 117, N-((4,6-dimethyl-2-oxo-1,2-dihydropyridin-3-yl)methyl)-6-methyl-5-(1-morpholinylethyl)-1-(3-morpholinylphenyl)indolizine-7-carboxamide] | > 7.00 |
| COc1ccc(-c2ccn3c(C(C)N4CCOCC4)c(C)c(C(=O)NCc4c(C)cc(C)[nH]c4=O)cc23)cc1 (stereo not shown) [Example 121, N-((4,6-dimethyl-2-oxo-1,2-dihydropyridin-3-yl)methyl)-6-methyl-5-(1-morpholinylethyl)-1-(4-methoxyphenyl)indolizine-7-carboxamide] | 6.00 to 7.00 |
| Cc1cc(C)c(CNC(=O)c2cc3c(-c4ccccc4)ccn3c(C(C)N3CCC(N(C)C)CC3)c2C)c(=O)[nH]1 (stereo not shown) [Example 127, N-((4,6-dimethyl-2-oxo-1,2-dihydropyridin-3-yl)methyl)-6-methyl-5-(4-dimethylaminopiperidinylethyl)-1-phenylindolizine-7-carboxamide] | > 7.00 |
| COc1cc(C)[nH]c(=O)c1CNC(=O)c1cc2c(-c3ccnn3C)ccn2c(C(C)N2CCOCC2)c1C (stereo not shown) [Example 132, N-((4-methoxy-6-methyl-2-oxo-1,2-dihydropyridin-3-yl)methyl)-6-methyl-1-(1-methyl-1H-pyrazol-5-yl)-5-(1-morpholinylethyl)indolizine-7-carboxamide] | > 7.00 |

Same assay, conditions: read-out: IC50 (EZH2_Y641F); EZH2 Y641F PRC2 complex, HTRF; class symbols

| Structure (SMILES) | pIC50 |
| --- | --- |
| CCN1CCN(C(C)c2c(C)c(C(=O)NCc3c(C)cc(C)[nH]c3=O)cc3cc(Br)cn23)CC1 (stereo not shown) [Example 99, N-((4,6-dimethyl-2-oxo-1,2-dihydropyridin-3-yl)methyl)-6-methyl-5-(1-(4-ethylpiperazine)-1-ethyl)-2-bromoindolizine-7-carboxamide] | 6.00 to 7.00 |
| Cc1cc(C)c(CNC(=O)c2cc3cc(Br)cn3c(C(C)N3CCN(C(=O)CO)CC3)c2C)c(=O)[nH]1 (stereo not shown) [Example 101] | 6.00 to 7.00 |
| Cc1cc(C)c(CNC(=O)c2cc3cc(Br)cn3c(C(C)N3CCN(C(=O)CO)CC3)c2C)c(=O)[nH]1 (stereo not shown) [Example 102] | 5.00 to 6.00 |
| Cc1cc(C)c(CNC(=O)c2cc3cc(Br)cn3c(C(C)N3CCN(CCC(F)(F)F)CC3)c2C)c(=O)[nH]1 (stereo not shown) [Example 104] | 6.00 to 7.00 |
| Cc1cc(C)c(CNC(=O)c2cc3cc(Br)cn3c(C(C)N3CCN(CCC(F)(F)F)CC3)c2C)c(=O)[nH]1 (stereo not shown) [Example 105, 2-bromo-N-((4,6-dimethyl-2-oxo-1,2-dihydropyridin-3-yl)methyl)-6-methyl-5-(1-(4-(3,3,3-trifluoropropyl)piperazin-1-yl)ethyl)indolizine-7-carboxamide] | 5.00 to 6.00 |
| COc1cc(C)[nH]c(=O)c1CNC(=O)c1cc2cc(-c3nccn3C)cn2c(C(C)N2CCC(N(C)C)CC2)c1C (stereo not shown) [Example 107] | > 7.00 |
| COc1cc(C)[nH]c(=O)c1CNC(=O)c1cc2cc(-c3nccn3C)cn2c(C(C)N2CCC(N(C)C)CC2)c1C (stereo not shown) [Example 108] | > 7.00 |
| Cc1cc(C)c(CNC(=O)c2cc3cc(-c4ccn[nH]4)cn3c(C(C)N3CCOCC3)c2C)c(=O)[nH]1 (stereo not shown) [Example 112, N-((4,6-dimethyl-2-oxo-1,2-dihydropyridin-3-yl)methyl)-6-methyl-5-(1-morpholinoethyl)-2-(pyrazol-5-yl)indolizine-7-carboxamide] | > 7.00 |
| Cc1cc(C)c(CNC(=O)c2cc3cc(-c4cc5c(s4)CCNC5)cn3c(C(C)N3CCOCC3)c2C)c(=O)[nH]1 (stereo not shown) [Example 114, N-((4,6-dimethyl-2-oxo-1,2-dihydropyridin-3-yl)methyl)-6-methyl-5-(1-morpholinoethyl)-2-(4,5,6,7-tetrahydro[2,3-c]pyridin-2-yl)indolizine-7-carboxamide] | 6.00 to 7.00 |
| Cc1cc(C)c(CNC(=O)c2cc3c(-c4cccc(N5CCOCC5)c4)ccn3c(C(C)N3CCOCC3)c2C)c(=O)[nH]1 (stereo not shown) [Example 116, N-((4,6-dimethyl-2-oxo-1,2-dihydropyridin-3-yl)methyl)-1-(3-(dimethylamine)phenyl)-6-methyl-5-(1-morpholinylethyl)indolizine-7-carboxamide] | > 7.00 |
| Cc1cc(C)c(CNC(=O)c2cc3c(-c4ccc(N5CCOCC5)cc4)ccn3c(C(C)N3CCOCC3)c2C)c(=O)[nH]1 (stereo not shown) [Example 118, N-((4,6-dimethyl-2-oxo-1,2-dihydropyridin-3-yl)methyl)-1-(4-(dimethylamine)phenyl)-6-methyl-5-(1-morpholinylethyl)indolizine-7-carboxamide] | > 7.00 |
| Cc1cc(C)c(CNC(=O)c2cc3c(-c4ccc(N5CCOCC5)cc4)ccn3c(C(C)N3CCOCC3)c2C)c(=O)[nH]1 (stereo not shown) [Example 119, N-((4,6-dimethyl-2-oxo-1,2-dihydropyridin-3-yl)methyl)-6-methyl-5-(1-morpholinylethyl)-1-(4-morpholinylphenyl)indolizine-7-carboxamide] | > 7.00 |
| COc1cccc(-c2ccn3c(C(C)N4CCOCC4)c(C)c(C(=O)NCc4c(C)cc(C)[nH]c4=O)cc23)c1 (stereo not shown) [Example 120, N-((4,6-dimethyl-2-oxo-1,2-dihydropyridin-3-yl)methyl)-6-methyl-5-(1-morpholinylethyl)-1-(3-methoxyphenyl)indolizine-7-amide] | > 7.00 |
| Cc1cc(C)c(CNC(=O)c2cc3cc(Br)cn3c(C(C)N3CCC(F)(F)CC3)c2C)c(=O)[nH]1 (stereo not shown) [Example 122] | 6.00 to 7.00 |
| Cc1cc(C)c(CNC(=O)c2cc3cc(Br)cn3c(C(C)N3CCC(F)(F)CC3)c2C)c(=O)[nH]1 (stereo not shown) [Example 123, 2-bromo-5-(1-(4,4-difluoropiperidin-1-yl)ethyl)-N-((4,6-dimethyl-2-oxo-1,2-dihydropyridin-3-yl)methyl)-6-methylindolizine-7-carboxamide] | 5.00 to 6.00 |
| COc1ccc(F)c(-c2cc3cc(C(=O)NCc4c(C)cc(C)[nH]c4=O)c(C)c(C(C)N4CCOCC4)n3c2)c1 (stereo not shown) [Example 124, N-((4,6-dimethyl-2-oxo-1,2-dihydropyridin-3-yl)methyl)-2-(2-fluoro-5-methoxyphenyl)-6-methyl-5-(1-morpholinoethyl)indolizine-7-carboxamide] | 6.00 to 7.00 |
| COC(=O)c1cc2cc(C(=O)NCc3c(C)cc(C)[nH]c3=O)c(C)c(C(C)N3CCOCC3)n2c1 (stereo not shown) [Example 125, methyl 7-(((4,6-dimethyl-2-oxo-1,2-dihydropyridin-3-yl)methyl)carbamoyl)-6-methyl-5-(1-morpholinylethyl)indolizine-2-carboxylate] | 6.00 to 7.00 |
| Cc1cc(C)c(CNC(=O)c2cc3cc(C(=O)N4CCOCC4)cn3c(C(C)N3CCOCC3)c2C)c(=O)[nH]1 (stereo not shown) [Example 126, N-((4,6-dimethyl-2-oxo-1,2-dihydropyridin-3-yl)methyl)-6-methyl-2-(morpholin-4-carbonyl)-5-(1-morpholinoethyl)indolizine-7-carboxamide] | > 7.00 |
| COc1cc(C)[nH]c(=O)c1CNC(=O)c1cc2c(-c3ccccc3)ccn2c(C(C)N2CCC(N(C)C)CC2)c1C (stereo not shown) [Example 129, N-((4,6-dimethyl-2-oxo-1,2-dihydropyridin-3-yl)methyl)-5-(1-(4-(dimethylamine)piperidine-1-yl)ethyl)-6-methyl-1-(1-methyl-1H-pyrazol-5-yl)indolizine-7-carboxamide] | > 7.00 |
| COc1cc(C)[nH]c(=O)c1CNC(=O)c1cc2cc(Cl)cn2c(C(C)N2CCC(N(C)C)CC2)c1C (stereo not shown) [Example 130, 2-chloro-5-(1-(4-(dimethylamino)piperidin-1-yl)ethyl)-N-((4-methoxy-6-methyl-2-oxo-1,2-di hydropyridin-3-yl)methyl)-6-methylindolizine-7-carboxamide] | > 7.00 |
| COc1cc(C)[nH]c(=O)c1CNC(=O)c1cc2c(-c3ccccc3)ccn2c(C(C)N2CCOCC2)c1C (stereo not shown) [Example 131, N-((4-methoxy-6-methyl-2-oxo-1,2-dihydropyridin-3-yl)methyl)-6-methyl-5-(1-morpholinylethyl)-1-phenylindolizine-7-carboxamide] | > 7.00 |
| Cc1cc(C)c(CNC(=O)c2cc3cc(-c4cncn4C)cn3c(C(C)N3CCC(N(C)C)CC3)c2C)c(=O)[nH]1 (stereo not shown) [Example 134, N-((4,6-dimethyl-2-oxo-1,2-dihydropyridin-3-yl)methyl)-5-(1-(4-(dimethylamino)piperidin-1-yl)ethyl)-6-methyl-2-(1-methyl-1H-imidazol-5-yl)indolizine-7-carboxamide] | > 7.00 |
